Legend:
[1] = Compound stability in human liver microsomes; type: in vitro ADME; details: for half-life at 5 μM / CLint scaled at 5 μM: pH 7.4; for half-life at 5 μM: read-out: Human T1/2; for CLint scaled at 5 μM: human liver microsomes, in vivo CLint extrapolated
Protocol: (§1) Human or rat liver microsomes incubations were conducted in duplicate in polypropylene tubes. The typical incubation mixtures consisted of human or rat liver microsomes (0.5 mg protein/mL), compounds of interest (5 μM) and NADPH (1.0 mM) in a total volume of 200 μL potassium phosphate buffer (PBS, 100 mM, pH 7.4). Compounds were dissolved in DMSO and diluted with PBS such that the final concentration of DMSO was 0.05%. The enzymatic reactions were commenced with the addition of […] after a 3-min preincubation and incubated in a water bath open to the air at 37° C. Reactions were terminated at various time points (0, 5, 10, 15, 30, 60 min) by adding equal volume of ice-cold acetonitrile. The samples were stored at […] until LC/MS/MS assays.
(§2) The concentrations of compounds in the incubation mixtures of human or rat liver microsomes were determined by a LC/MS/MS method. The ranges of the linearity in the concentration range were determined for each tested compounds.
(§3) A parallel incubation was performed using denatured microsomes as the negative control, and reactions were terminated at various time points (0, 15, 60 min) after incubation at 37° C.
(§4) Dextromethorphan (70 μM) was selected as the positive control, and reactions were terminated at various time points (0, 5, 10, 15, 30, 60 min) after incubation at 37° C. Both positive and negative control samples were included in each assay to ensure the integrity of the microsomal incubation system.
(§5) The concentrations of compounds in human or rat liver microsome incubations were plotted as a percentage of the relevant zero time point control for each reaction. The in vivo CLint were extrapolated (ref.: Naritomi, Y.; Terashita, S.; Kimura, S.; Suzuki, A.; Kagayama, A.; and Sugiyama, Y.; Prediction of human hepatic clearance from in vivo animal experiments and in vitro metabolic studies with liver microsomes from animals and humans. Drug Metab. Dispos., 2001, 29: 1316-1324).

[2] = Compound stability in rat liver microsomes; type: in vitro ADME; details: pH 7.4; for half-life at 5 μM: rat liver microsomes 0.5 mg protein/mL, compound 5 μM, NADPH 1.0 mM, 37° C., read-out: Rat T1/2; for CLint scaled at 5 μM: rat liver microsomes, in vivo CLint extrapolated
Protocol: as §1, §2, §3, §4, §5

[3] = Pharmacokinetics after intravenous and oral administration in rats; type: in vivo, rat; details: iv dosing, 1 mg/kg; for AUC(0-t) / half-life / Vd: rat, plasma; for Vd: read-out: Vss
Protocol: The compounds disclosed herein are assessed in pharmacokinetic studies in mice, rats, dogs or monkeys. The compounds are administered as a water solution, 2% HPMC+1% TWEEN®80 in water solution, 5% DMSO+5% solutol in saline, 4% MC suspension or capsule. For the intravenous administration, the animals are generally given at 1 or 2 mg/kg dose. For the oral (p.o.) dosing, mice and rats are generally given 5 or 10 mg/kg dose, and dogs and monkeys are generally given 10 mg/kg dose. The blood samples (0.3 mL) are drawn at 0.25, 0.5, 1.0, 2.0, 3.0, 4.0, 6.0, 8.0, 12 and 24 h time points or 0.083, 0.25, 0.5, 1.0, 2.0, 4.0, 6.0, 8.0 and 24 h time points and centrifuged at 3,000 or 4000 rpm for 2 to 10 min. The plasma solutions are collected, and stored at −20° C. or −70° C. until analyzed by LC/MS/MS as described above.

[4] = biological target: JAK1 (h) (Homo sapiens (Human), UniProt P23458); test: JAK1 (h) kinase assay; type: biochemical
Protocol: (§6) Kinase assays can be performed by measurement of incorporation of γ-^33P ATP into immobilized myelin basic protein (MBP). High binding white 384 well plates (Greiner) are coated with MBP (Sigma #M-1891) by incubation of 60 μL/well of 20 μg/mL MBP in Tris-buffered saline (TBS; 50 mM Tris pH 8.0, 138 mM NaCl, 2.7 mM KCl) for 24 h at 4° C. Plates are washed 3× with 100 μL TBS. Kinase reactions are carried out in a total volume of 34 μL in kinase buffer (5 mM Hepes pH 7.6, 15 mM NaCl, 0.01% bovine gamma globulin (Sigma #I-5506), 10 mM MgCl2, 1 mM DTT, 0.02% TritonX-100). Compound dilutions are performed in DMSO and added to assay wells to a final DMSO concentration of 1%. Each data point is measured in duplicate, and at least two duplicate assays are performed for each individual compound determination. Enzyme is added to final concentrations of 10 nM or 20 nM, for example. A mixture of unlabeled ATP and γ-^33P ATP is added to start the reaction (2×10^6 cpm of γ-^33P ATP per well (3000 Ci/mmole) and 10 μM unlabeled ATP, typically. The reactions are carried out for 1 h at room temperature with shaking Plates are washed 7× with TBS, followed by the addition of 50 μL/well scintillation fluid (Wallac). Plates are read using a Wallac Trilux counter. This is only one format of such assays; various other formats are possible, as known to one skilled in the art.
The above assay procedure can be used to determine the IC50 for inhibition and/or the inhibition constant, Ki. The IC50 is defined as the concentration of compound required to reduce the enzyme activity by 50% under the condition of the assay. The IC50 value is estimated by preparing a 10 point curve using a ½ log dilution series (for example, a typical curve may be prepared using the following compound concentrations: 3 μM, 1 μM, 0.3 μM, 0.1 μM, 0.03 μM, 0.01 μM, 0.003 μM, 0.001 μM, 0.0003 μM, and 0 μM).
(§7) The kinase assays described herein were performed at Millipore UK Ltd, Dundee Technology Park, Dundee DD2 1SW, UK.

[5] = biological target: JAK2 (h) (Homo sapiens (Human), UniProt O60674); test: JAK2 (h) kinase assay; type: biochemical
Protocol: as §6, with “art. […]” for “art.”

[6] = biological target: Aurora-A (h) (Homo sapiens (Human), UniProt O14965); test: Aurora-A (h) kinase assay; type: biochemical
Protocol: Kinase assays can be performed by measurement of incorporation of γ-^33P ATP into immobilized myelin basic protein (MBP). […] Plates are washed 3× with 100 μL TBS. Kinase reactions are carried out in a total volume of 34 μL in kinase buffer (5 mM Hepes pH 7.6, 15 mM NaCl, 0.01% bovine gamma globulin (Sigma #I-5506), 10 mM MgCl2, 1 mM DTT, 0.02% TritonX-100). Compound dilutions are performed in DMSO and added to assay wells to a final DMSO concentration of 1%. Each data point is measured in duplicate, and at least two duplicate assays are performed for each individual compound determination. Enzyme is added to final concentrations of 10 nM or 20 nM, for example.
The above assay procedure can be used to determine the IC50 for inhibition and/or the inhibition constant, Ki. The IC50 is defined as the concentration of compound required to reduce the enzyme activity by 50% under the condition of the assay.
as §7

[7] = biological target: Aurora-B (h) (Homo sapiens (Human), UniProt Q96GD4); test: Aurora-B (h) kinase assay; type: biochemical
Protocol: as §6, with “art. […]” for “art.”

[8] = biological target: FLT3 (h) (Homo sapiens (Human), UniProt P36888); test: FLT3 (h) kinase assay; type: biochemical
Protocol: as §6, with “art. […]” for “art.”

[9] = human liver microsomes 0.5 mg protein/mL, compound 5 μM, NADPH 1.0 mM, 37° C.

JAK1 (h), sequence (P23458 whole entry): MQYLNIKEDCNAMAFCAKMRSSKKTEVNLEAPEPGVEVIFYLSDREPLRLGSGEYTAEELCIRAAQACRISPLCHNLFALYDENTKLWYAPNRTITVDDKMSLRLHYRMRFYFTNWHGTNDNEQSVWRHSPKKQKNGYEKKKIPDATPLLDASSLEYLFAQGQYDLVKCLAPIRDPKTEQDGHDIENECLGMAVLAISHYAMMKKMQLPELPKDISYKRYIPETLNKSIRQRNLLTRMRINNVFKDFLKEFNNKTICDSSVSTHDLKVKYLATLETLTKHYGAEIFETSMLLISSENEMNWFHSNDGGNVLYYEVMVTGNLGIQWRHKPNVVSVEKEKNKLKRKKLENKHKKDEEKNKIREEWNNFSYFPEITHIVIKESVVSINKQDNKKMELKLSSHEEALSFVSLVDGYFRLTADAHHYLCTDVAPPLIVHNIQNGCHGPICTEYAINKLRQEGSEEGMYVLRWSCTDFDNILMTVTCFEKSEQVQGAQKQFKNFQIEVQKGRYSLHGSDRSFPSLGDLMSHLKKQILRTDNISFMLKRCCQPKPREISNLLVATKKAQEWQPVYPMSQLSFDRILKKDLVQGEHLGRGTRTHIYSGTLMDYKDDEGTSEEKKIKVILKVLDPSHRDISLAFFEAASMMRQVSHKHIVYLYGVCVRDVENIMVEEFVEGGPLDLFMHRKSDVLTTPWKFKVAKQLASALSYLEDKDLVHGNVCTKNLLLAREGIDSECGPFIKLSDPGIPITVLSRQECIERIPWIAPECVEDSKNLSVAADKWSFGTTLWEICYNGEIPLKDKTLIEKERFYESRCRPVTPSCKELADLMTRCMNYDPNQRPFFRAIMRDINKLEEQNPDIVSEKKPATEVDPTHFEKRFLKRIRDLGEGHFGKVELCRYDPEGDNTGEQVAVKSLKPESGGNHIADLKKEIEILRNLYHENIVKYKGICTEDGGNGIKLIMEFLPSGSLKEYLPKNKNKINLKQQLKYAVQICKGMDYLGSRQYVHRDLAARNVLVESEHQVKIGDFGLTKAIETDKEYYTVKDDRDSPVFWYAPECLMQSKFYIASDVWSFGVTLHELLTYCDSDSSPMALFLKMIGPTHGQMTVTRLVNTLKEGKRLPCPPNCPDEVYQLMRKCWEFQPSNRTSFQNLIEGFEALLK
FLT3 (h), sequence (P36888 27-993): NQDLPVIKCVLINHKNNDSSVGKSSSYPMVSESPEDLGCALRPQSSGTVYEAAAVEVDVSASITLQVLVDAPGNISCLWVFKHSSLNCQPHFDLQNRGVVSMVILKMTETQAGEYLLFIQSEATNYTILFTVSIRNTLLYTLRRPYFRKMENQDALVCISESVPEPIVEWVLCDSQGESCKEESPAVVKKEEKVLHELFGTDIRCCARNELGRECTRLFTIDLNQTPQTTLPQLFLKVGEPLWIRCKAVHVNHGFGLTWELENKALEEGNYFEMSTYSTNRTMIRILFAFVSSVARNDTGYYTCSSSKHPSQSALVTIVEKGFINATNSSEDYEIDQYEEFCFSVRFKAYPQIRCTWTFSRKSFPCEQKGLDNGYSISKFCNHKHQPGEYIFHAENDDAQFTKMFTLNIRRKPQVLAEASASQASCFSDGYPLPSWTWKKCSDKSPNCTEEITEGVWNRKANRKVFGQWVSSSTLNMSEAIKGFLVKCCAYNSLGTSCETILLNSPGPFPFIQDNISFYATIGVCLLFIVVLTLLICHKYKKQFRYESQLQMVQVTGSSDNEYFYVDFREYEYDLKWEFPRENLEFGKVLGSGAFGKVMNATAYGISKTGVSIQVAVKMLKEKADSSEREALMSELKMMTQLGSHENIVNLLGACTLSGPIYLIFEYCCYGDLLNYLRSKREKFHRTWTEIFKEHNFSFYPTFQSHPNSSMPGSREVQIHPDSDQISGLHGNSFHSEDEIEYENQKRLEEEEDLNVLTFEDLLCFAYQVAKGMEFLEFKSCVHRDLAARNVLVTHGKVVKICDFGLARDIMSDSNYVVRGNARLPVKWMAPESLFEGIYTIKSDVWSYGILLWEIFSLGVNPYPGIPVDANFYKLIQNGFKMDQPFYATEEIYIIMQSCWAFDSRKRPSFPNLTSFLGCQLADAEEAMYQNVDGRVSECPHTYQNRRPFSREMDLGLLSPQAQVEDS
Aurora-B (h), sequence (Q96GD4 whole entry): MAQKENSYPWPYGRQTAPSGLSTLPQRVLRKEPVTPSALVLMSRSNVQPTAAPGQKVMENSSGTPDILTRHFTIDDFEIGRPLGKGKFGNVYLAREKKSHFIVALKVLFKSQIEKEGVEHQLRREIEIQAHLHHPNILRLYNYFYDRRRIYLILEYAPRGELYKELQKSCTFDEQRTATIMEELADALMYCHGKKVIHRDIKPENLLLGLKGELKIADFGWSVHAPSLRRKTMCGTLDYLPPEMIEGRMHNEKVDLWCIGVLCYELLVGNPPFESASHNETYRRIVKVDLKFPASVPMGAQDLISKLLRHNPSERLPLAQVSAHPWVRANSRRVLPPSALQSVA
Aurora-A (h), sequence (O14965 whole entry): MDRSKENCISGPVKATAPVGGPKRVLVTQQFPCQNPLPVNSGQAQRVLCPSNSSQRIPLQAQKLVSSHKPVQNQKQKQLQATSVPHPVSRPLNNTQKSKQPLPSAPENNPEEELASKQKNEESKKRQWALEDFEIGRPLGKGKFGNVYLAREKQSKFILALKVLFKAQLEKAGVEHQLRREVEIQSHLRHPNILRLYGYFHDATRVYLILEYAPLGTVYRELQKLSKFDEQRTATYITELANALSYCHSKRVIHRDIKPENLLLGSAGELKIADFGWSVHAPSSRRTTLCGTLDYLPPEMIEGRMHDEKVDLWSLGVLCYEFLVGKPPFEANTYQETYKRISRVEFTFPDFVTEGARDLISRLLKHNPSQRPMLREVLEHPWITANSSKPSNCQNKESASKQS
JAK2 (h), sequence (O60674 whole entry): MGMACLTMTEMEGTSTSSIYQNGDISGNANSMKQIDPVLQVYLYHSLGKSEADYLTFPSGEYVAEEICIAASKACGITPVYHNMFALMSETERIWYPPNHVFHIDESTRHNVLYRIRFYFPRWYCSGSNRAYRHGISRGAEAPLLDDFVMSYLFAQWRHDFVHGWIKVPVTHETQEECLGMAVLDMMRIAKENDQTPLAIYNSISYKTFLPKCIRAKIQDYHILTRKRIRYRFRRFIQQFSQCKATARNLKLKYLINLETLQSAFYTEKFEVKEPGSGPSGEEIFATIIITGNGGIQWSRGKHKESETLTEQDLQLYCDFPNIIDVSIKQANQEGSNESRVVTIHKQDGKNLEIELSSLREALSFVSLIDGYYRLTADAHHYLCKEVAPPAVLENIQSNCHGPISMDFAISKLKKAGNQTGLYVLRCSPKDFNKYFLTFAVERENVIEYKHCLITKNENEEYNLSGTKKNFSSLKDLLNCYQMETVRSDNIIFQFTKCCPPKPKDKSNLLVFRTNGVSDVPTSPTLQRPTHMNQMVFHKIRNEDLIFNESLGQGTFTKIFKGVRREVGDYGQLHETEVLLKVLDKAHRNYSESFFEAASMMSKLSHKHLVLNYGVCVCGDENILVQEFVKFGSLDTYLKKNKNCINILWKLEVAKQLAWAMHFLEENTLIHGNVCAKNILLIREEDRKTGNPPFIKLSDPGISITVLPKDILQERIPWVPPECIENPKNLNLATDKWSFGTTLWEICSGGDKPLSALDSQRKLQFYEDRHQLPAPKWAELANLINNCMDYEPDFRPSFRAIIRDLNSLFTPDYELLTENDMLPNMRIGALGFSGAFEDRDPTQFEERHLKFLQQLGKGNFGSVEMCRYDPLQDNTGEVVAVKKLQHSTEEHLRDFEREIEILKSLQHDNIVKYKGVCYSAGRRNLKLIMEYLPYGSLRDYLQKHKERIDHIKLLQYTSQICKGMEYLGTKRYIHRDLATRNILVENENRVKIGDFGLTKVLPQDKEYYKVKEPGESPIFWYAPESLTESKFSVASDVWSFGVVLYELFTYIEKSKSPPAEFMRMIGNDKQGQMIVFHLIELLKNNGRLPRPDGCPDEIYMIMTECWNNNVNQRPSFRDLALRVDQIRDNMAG

Compound | half-life at 5 μM [1, 9] [h] | CLint scaled at 5 μM [1] [L/h/kg] | half-life at 5 μM [2] [h] | CLint scaled at 5 μM [2] [L/h/kg] | Cl/F [3] [L/h/kg] | AUC(0-t) [3] [µg·h/mL] | half-life [3] [h] | Vd [3] [L/kg] | IC50 [4] [µM] | IC50 [6] [µM] | IC50 [7] [µM] | IC50 [8] [µM] | Human T1/2 [1, 9] | IC50 [5] [µM]
CN(c1nc(Nc2cnn(C)c2)ncc1Cl)C1COC2C(O)COC21 (stereo not drawn) [Ex. 1, 6-((5-chloro-2-((l-methyl-1H-pyrazol-4-yl)amino)pyrimidin-4-yl)(methyl)amino)hexahydrofuro[3,2-b]furan-3-ol] | 32.8 | 0.0528 | 20.6 | 0.121 | 1.09 | 0.929 | 1.2 | 1.22 | 0.261 |  |  |  |  | 0.689
Cn1cc(Nc2ncc(Cl)c(NC3COC4C(OCCO)COC34)n2)cn1 (stereo not drawn) [Ex. 5, 2-((6-((5-chloro-2-((l-methyl-1H-pyrazol-4-yl)amino)pyrimidin-4-yl)amino)hexahydrofuro[3,2-b]furan-3-yl)oxy)ethanol] |  |  | 12.1 | 0.205 | 1.50 | 0.621 | 2.93 | 3.02 | 0.061 |  | 0.05 | 0.057 | ∞ | 
Cc1cnc(Nc2cnn(C)c2)nc1NC1COC2C(O)COC12 (stereo not drawn) [Ex. 3, 6-((5-methyl-2-((1-methyl-1H-pyrazol-4-yl)amino)pyrimidin-4-yl)amino) hexahydrofuro[3,2-b]furan-3-ol] |  |  |  |  |  |  |  |  | 0.078 |  |  |  |  | 

Second part, led by results:

half-life at 5 μM [1, 9] [h] | CLint scaled at 5 μM [1] [L/h/kg] | half-life at 5 μM [2] [h] | CLint scaled at 5 μM [2] [L/h/kg] | Cl/F [3] [L/h/kg] | AUC(0-t) [3] [µg·h/mL] | half-life [3] [h] | Vd [3] [L/kg] | IC50 [4] [µM] | IC50 [6] [µM] | IC50 [7] [µM] | IC50 [8] [µM] | Human T1/2 [1, 9] | Compound | IC50 [5] [µM]
 |  |  |  |  |  |  |  |  | 0.099 |  |  |  | Cn1cc(Nc2ncc(Cl)c(NC3COC4C(N)COC34)n2)cn1 (stereo not drawn) [Ex. 7, N^4-(6-aminohexahydrofuro[3,2-b]furan-3-yl)-5-chloro-N^2-(1-methyl-1H-pyrazol-4-yl)pyrimidine-2,4-diamine] | 
6.28 | 0.277 | 1.64 | 1.51 | 3.82 | 0.259 | 0.34 | 1.39 | 0.031 | 0.051 | 0.031 | 0.011 |  | Cn1cc(Nc2ncc(Cl)c(NC3COC4C(NS(C)(=O)=O)COC34)n2)cn1 (stereo not drawn) [Ex. 8, N-(6-((5-chloro-2-((1-methyl-1H-pyrazol-4-yl)amino)pyrimidin-4-yl)amino)hexahydrofuro[3,2-b]furan-3-yl)methanesulfonamide] | 
1.52 | 1.14 | 1.48 | 1.68 | 1.25 | 0.822 | 0.83 | 1.39 |  |  |  |  |  | COC1COC2C(Nc3nc(Nc4cnn(C)c4)ncc3Cl)COC12 (stereo not drawn) [Ex. 6, 5-chloro-N^4-(6-methoxyhexahydrofuro[3,2-b]furan-3-yl)-N^2-(1-methyl-1H-pyrazol-4-yl)pyrimidine-2,4-diamine] | 
